Source: paper PMC12454493, “Insight on novel sulfamoylphenyl pyrazole derivatives as anticancer carbonic anhydrase inhibitors” (Molecular Diversity, 2024)
Several values for one entry are separate records, joined by “and”; a condition that tells them apart may be missing. Equal entries are not always repeated.

Tests used:
SF-268 = test: NCI-60 one-dose SRB screen (CNS Cancer); type: cell-based; conditions: Homo sapiens, single dose 10 µM, 48 h, read-out: Growth inhibition percent (GI %)
Procedure: (§1) The National Cancer Institute (NCI) Developmental Therapeutic Program (www.dtp.nci.nih.gov) selected the 20 novel synthesized compounds 4a-e, 5a-e, 6a-c, 9a-e, 10 and 11 to test for their anticancer activity at a single dose of 10 µM using SRB assay. […] Supplementary Data S3; Table S1 presents the detailed screening results of the most promising compounds. The preliminary screening’s detailed results for the remaining compounds are elucidated in the (Supplementary Data S3; Table S2).
(§2) The guidelines of the Drug Evaluation Branch’s protocol at the NCI in Bethesda served as the basis for the in vitro anticancer screening assays. at one dose 10 µM against a panel of 60 cancer cell lines. The human tumor cell lines used belonged to nine panels: leukemia, melanoma, lung, colon, CNS, ovarian, renal, prostate and breast cancers using the sulforhodamine B (SRB) assay in a 48 h drug exposure protocol.

SNB-75 = test: NCI-60 one-dose SRB screen (CNS Cancer); type: cell-based; conditions: Homo sapiens, single dose 10 µM, 48 h, read-out: Growth inhibition percent (GI %)
Procedure: as §1, §2

SF-539 = test: NCI-60 one-dose SRB screen (CNS Cancer); type: cell-based; conditions: Homo sapiens, single dose 10 µM, 48 h, read-out: Growth inhibition percent (GI %)
Procedure: as §1, §2

U251 = test: NCI-60 one-dose SRB screen (CNS Cancer); type: cell-based; conditions: Homo sapiens, U-251, single dose 10 µM, 48 h, read-out: Growth inhibition percent (GI %)
Procedure: as §1, §2

SNB-19 = test: NCI-60 one-dose SRB screen (CNS Cancer); type: cell-based; conditions: Homo sapiens, single dose 10 µM, 48 h, read-out: Growth inhibition percent (GI %)
Procedure: as §1, §2

SF-295 = test: NCI-60 one-dose SRB screen (CNS Cancer); type: cell-based; conditions: Homo sapiens, single dose 10 µM, 48 h, read-out: Growth inhibition percent (GI %)
Procedure: as §1, §2

NCI-H23 = test: NCI-60 one-dose SRB screen (Non-Small Cell Lung Cancer); type: cell-based; conditions: Homo sapiens, single dose 10 µM, 48 h, read-out: Growth inhibition percent (GI %)
Procedure: as §1, §2

NCI-H460 = test: as above; type: cell-based; conditions: Homo sapiens, single dose 10 µM, 48 h, read-out: Growth inhibition percent (GI %)
Procedure: as §1, §2

A549/ATCC = test: as above; type: cell-based; conditions: Homo sapiens, single dose 10 µM, 48 h, read-out: Growth inhibition percent (GI %)
Procedure: as §1, §2

HOP-92 = test: as above; type: cell-based; conditions: Homo sapiens, single dose 10 µM, 48 h, read-out: Growth inhibition percent (GI %)
Procedure: as §1, §2

NCI-H226 = test: as above; type: cell-based; conditions: Homo sapiens, single dose 10 µM, 48 h, read-out: Growth inhibition percent (GI %)
Procedure: as §1, §2

HOP-62 = test: as above; type: cell-based; conditions: Homo sapiens, single dose 10 µM, 48 h, read-out: Growth inhibition percent (GI %)
Procedure: as §1, §2

EKVX = test: as above; type: cell-based; conditions: Homo sapiens, single dose 10 µM, 48 h, read-out: Growth inhibition percent (GI %)
Procedure: as §1, §2

NCI-H522 = test: as above; type: cell-based; conditions: Homo sapiens, single dose 10 µM, 48 h, read-out: Growth inhibition percent (GI %)
Procedure: as §1, §2

NCI-H322M = test: as above; type: cell-based; conditions: Homo sapiens, single dose 10 µM, 48 h, read-out: Growth inhibition percent (GI %)
Procedure: as §1, §2

DU-145 = test: NCI-60 one-dose SRB screen (Prostate Cancer); type: cell-based; conditions: Homo sapiens, single dose 10 µM, 48 h, read-out: Growth inhibition percent (GI %)
Procedure: as §1, §2

PC-3 = test: NCI-60 one-dose SRB screen (Prostate Cancer); type: cell-based; conditions: Homo sapiens, single dose 10 µM, 48 h, read-out: Growth inhibition percent (GI %)
Procedure: as §1, §2

HL-60(TB) = test: NCI-60 one-dose SRB screen (Leukemia); type: cell-based; conditions: Homo sapiens, single dose 10 µM, 48 h, read-out: Growth inhibition percent (GI %)
Procedure: as §1, §2

K-562 = test: NCI-60 one-dose SRB screen (Leukemia); type: cell-based; conditions: Homo sapiens, K562, single dose 10 µM, 48 h, read-out: Growth inhibition percent (GI %)
Procedure: as §1, §2

RPMI-8226 = test: NCI-60 one-dose SRB screen (Leukemia); type: cell-based; conditions: Homo sapiens, single dose 10 µM, 48 h, read-out: Growth inhibition percent (GI %)
Procedure: as §1, §2

CCRF-CEM = test: NCI-60 one-dose SRB screen (Leukemia); type: cell-based; conditions: Homo sapiens, single dose 10 µM, 48 h, read-out: Growth inhibition percent (GI %)
Procedure: as §1, §2

MOLT-4 = test: NCI-60 one-dose SRB screen (Leukemia); type: cell-based; conditions: Homo sapiens, single dose 10 µM, 48 h, read-out: Growth inhibition percent (GI %)
Procedure: as §1, §2

SK-MEL-28 = test: NCI-60 one-dose SRB screen (Melanoma); type: cell-based; conditions: Homo sapiens, single dose 10 µM, 48 h, read-out: Growth inhibition percent (GI %)
Procedure: as §1, §2

UACC-257 = test: NCI-60 one-dose SRB screen (Melanoma); type: cell-based; conditions: Homo sapiens, single dose 10 µM, 48 h, read-out: Growth inhibition percent (GI %)
Procedure: as §1, §2

UACC-62 = test: NCI-60 one-dose SRB screen (Melanoma); type: cell-based; conditions: Homo sapiens, single dose 10 µM, 48 h, read-out: Growth inhibition percent (GI %)
Procedure: as §1, §2

MALME-3M = test: NCI-60 one-dose SRB screen (Melanoma); type: cell-based; conditions: Homo sapiens, single dose 10 µM, 48 h, read-out: Growth inhibition percent (GI %)
Procedure: as §1, §2

LOX IMVI = test: NCI-60 one-dose SRB screen (Melanoma); type: cell-based; conditions: Homo sapiens, single dose 10 µM, 48 h, read-out: Growth inhibition percent (GI %)
Procedure: as §1, §2

SK-MEL-5 = test: NCI-60 one-dose SRB screen (Melanoma); type: cell-based; conditions: Homo sapiens, single dose 10 µM, 48 h, read-out: Growth inhibition percent (GI %)
Procedure: as §1, §2

MDA-MB-435 = test: NCI-60 one-dose SRB screen (Melanoma); type: cell-based; conditions: Homo sapiens, single dose 10 µM, 48 h, read-out: Growth inhibition percent (GI %)
Procedure: as §1, §2

M14 = test: NCI-60 one-dose SRB screen (Melanoma); type: cell-based; conditions: Homo sapiens, single dose 10 µM, 48 h, read-out: Growth inhibition percent (GI %)
Procedure: as §1, §2

hCA IX = hCA IX (Homo sapiens, UniProt Q16790); test: CA inhibitory activity, spectrophotometric p-NPA assay; type: biochemical; conditions: p-NPA substrate, pH 7.5, 25 °C, triplicate; read-out: IC50 (µM) ± SD hCA IX
SK-OV-3 = test: NCI-60 one-dose SRB screen (Ovarian cancer); type: cell-based; conditions: Homo sapiens, single dose 10 µM, 48 h, read-out: Growth inhibition percent (GI %)
Procedure: as §1, §2

OVCAR-8 = test: NCI-60 one-dose SRB screen (Ovarian cancer); type: cell-based; conditions: Homo sapiens, single dose 10 µM, 48 h, read-out: Growth inhibition percent (GI %)
Procedure: as §1, §2

OVCAR-3 = test: NCI-60 one-dose SRB screen (Ovarian cancer); type: cell-based; conditions: Homo sapiens, single dose 10 µM, 48 h, read-out: Growth inhibition percent (GI %)
Procedure: as §1, §2

OVCAR-5 = test: NCI-60 one-dose SRB screen (Ovarian cancer); type: cell-based; conditions: Homo sapiens, single dose 10 µM, 48 h, read-out: Growth inhibition percent (GI %)
Procedure: as §1, §2

OVCAR-4 = test: NCI-60 one-dose SRB screen (Ovarian cancer); type: cell-based; conditions: Homo sapiens, single dose 10 µM, 48 h, read-out: Growth inhibition percent (GI %)
Procedure: as §1, §2

IGROV1 = test: NCI-60 one-dose SRB screen (Ovarian cancer); type: cell-based; conditions: Homo sapiens, IGROV-1, single dose 10 µM, 48 h, read-out: Growth inhibition percent (GI %)
Procedure: as §1, §2

BT-549 = test: NCI-60 one-dose SRB screen (Breast Cancer); type: cell-based; conditions: Homo sapiens, single dose 10 µM, 48 h, read-out: Growth inhibition percent (GI %)
Procedure: as §1, §2

MDA-MB-231/ATCC = test: NCI-60 one-dose SRB screen (Breast Cancer); type: cell-based; conditions: Homo sapiens, single dose 10 µM, 48 h, read-out: Growth inhibition percent (GI %)
Procedure: as §1, §2

HS 578T = test: NCI-60 one-dose SRB screen (Breast Cancer); type: cell-based; conditions: Homo sapiens, single dose 10 µM, 48 h, read-out: Growth inhibition percent (GI %)
Procedure: as §1, §2

MDA-MB-468 = test: NCI-60 one-dose SRB screen (Breast Cancer); type: cell-based; conditions: Homo sapiens, single dose 10 µM, 48 h, read-out: Growth inhibition percent (GI %)
Procedure: as §1, §2

T-47D = test: NCI-60 one-dose SRB screen (Breast Cancer); type: cell-based; conditions: Homo sapiens, T47D, single dose 10 µM, 48 h, read-out: Growth inhibition percent (GI %)
Procedure: as §1, §2

MCF-7 = test: NCI-60 one-dose SRB screen (Breast Cancer); type: cell-based; conditions: Homo sapiens, MCF7, single dose 10 µM, 48 h, read-out: Growth inhibition percent (GI %)
Procedure: as §1, §2

COc1ccc(-c2nn(-c3ccc(S(N)(=O)=O)cc3)cc2C(=O)OCC(=O)Nc2ccc(S(N)(=O)=O)cc2)cc1 [Compound 4c, 2-Oxo-2-[(4-sulfamoylphenyl)amino] ethyl 3-(4-methoxyphenyl)-1-(4-sulfamoylphenyl)-1H-pyrazole-4-carboxylate]
8.81%: inhibition at 10 µM (PC-3)
9.61%: inhibition at 10 µM (K-562)
8.77%: inhibition at 10 µM (MCF-7)
43.3%: inhibition at 10 µM (M14)
9.19%: inhibition at 10 µM (RPMI-8226)
28.7%: inhibition at 10 µM (SNB-75)
13.9%: inhibition at 10 µM (HL-60(TB))
41.6%: inhibition at 10 µM (BT-549)
< 5%: inhibition at 10 µM (SF-268) | inhibition at 10 µM (SF-539) | inhibition at 10 µM (U251) | inhibition at 10 µM (SNB-19) | inhibition at 10 µM (SF-295) | inhibition at 10 µM (NCI-H23) | inhibition at 10 µM (NCI-H460) | inhibition at 10 µM (A549/ATCC) | inhibition at 10 µM (HOP-92) | inhibition at 10 µM (NCI-H226) | inhibition at 10 µM (HOP-62) | inhibition at 10 µM (EKVX) | inhibition at 10 µM (NCI-H522) | inhibition at 10 µM (NCI-H322M) | inhibition at 10 µM (DU-145) | inhibition at 10 µM (CCRF-CEM) | inhibition at 10 µM (MOLT-4) | inhibition at 10 µM (SK-MEL-28) | inhibition at 10 µM (UACC-257) | inhibition at 10 µM (UACC-62) | inhibition at 10 µM (MALME-3M) | inhibition at 10 µM (LOX IMVI) | inhibition at 10 µM (SK-MEL-5) | inhibition at 10 µM (MDA-MB-435) | inhibition at 10 µM (SK-OV-3) | inhibition at 10 µM (OVCAR-8) | inhibition at 10 µM (OVCAR-3) | inhibition at 10 µM (OVCAR-5) | inhibition at 10 µM (OVCAR-4) | inhibition at 10 µM (IGROV1) | inhibition at 10 µM (MDA-MB-231/ATCC) | inhibition at 10 µM (HS 578T) | inhibition at 10 µM (MDA-MB-468) | inhibition at 10 µM (T-47D)
0.17 µM and 0.175 µM: IC50 (hCA IX)
